PubChem BioAssay (NCI)
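All cell lines were grown in 96-well plates and treated with compound for 48 hours. GI50 marks 50% less growth. TGI denotes the concentration required for complete inhibition of growth.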

Key:
Assay in all cases: NCI tumour cell line growth inhibition, 48 h
[1] = tested on: MDA-MB-435
[2] = tested on: SK-MEL-28 melanoma
[3] = tested on: TK-10 renal
[4] = tested on: SF-268 CNS
[5] = tested on: RXF 393 renal
[6] = tested on: MALME-3M melanoma
[7] = tested on: NCI-H460 lung
[8] = tested on: RPMI-8226 leukemia
[9] = tested on: NCI-H226 lung
[10] = tested on: KM12 colon
[11] = tested on: SK-MEL-5 melanoma
[12] = tested on: OVCAR-4 ovarian
[13] = tested on: U251 CNS
[14] = tested on: CCRF-CEM leukemia
[15] = tested on: HL-60(TB) leukemia
[16] = tested on: HCC-2998 colon

## COc1cc(/C=C/c2cc(/C=C/c3ccc(O)c(OC)c3)oc(=O)c2)ccc1O
[1]
  TGI: 22.5 µM
[2]
  TGI: > 100 µM
[3]
  TGI: > 30 µM
[4]
  TGI: > 39.7 µM
[5]
  TGI: 1.08 µM
[6]
  TGI: 10.7 µM
[7]
  TGI: 7.63 µM
[8]
  TGI: > 20.5 µM
[9]
  TGI: 61.1 µM
[10]
  TGI: 18 µM
[11]
  TGI: > 100 µM
[12]
  TGI: 13.6 µM
[13]
  TGI: > 51.8 µM
[14]
  TGI: > 26.1 µM

## C=CC(C)CCC(C/C=C(\C)CCC=C(C)C)C(=C)CCCC(C)C (stereo not given)
[1]
  TGI: > 100 µM
[2]
  TGI: > 100 µM
[3]
  TGI: > 100 µM
[4]
  TGI: > 100 µM
[5]
  TGI: > 100 µM
[6]
  TGI: > 100 µM
[7]
  TGI: > 100 µM
[8]
  TGI: > 100 µM
[10]
  TGI: > 100 µM
[15]
  TGI: > 100 µM
[11]
  TGI: > 100 µM
[16]
  TGI: > 100 µM
[12]
  TGI: > 100 µM
[13]
  TGI: > 100 µM
[14]
  TGI: > 100 µM

## COc1cc2c(cc1OCc1ccccc1)NC(=S)[C@@H]1CCCN1C2=S
[1]
  TGI: > 100 µM
[2]
  TGI: > 100 µM
[3]
  TGI: > 100 µM
[4]
  TGI: > 100 µM
[5]
  TGI: > 100 µM
[6]
  TGI: > 100 µM
[7]
  TGI: > 100 µM
[8]
  TGI: > 100 µM
[9]
  TGI: > 100 µM
[10]
  TGI: > 100 µM
[11]
  TGI: > 100 µM
[16]
  TGI: > 100 µM
[12]
  TGI: > 100 µM
[13]
  TGI: > 100 µM
[14]
  TGI: > 100 µM

## O=C(c1cccc(C(=O)c2ccc3c4c(cccc24)C(=O)N(c2ccccc2)C3=O)c1)c1ccc2c3c(cccc13)C(=O)N(c1ccccc1)C2=O
[1]
  TGI: > 100 µM
[2]
  TGI: > 100 µM
[3]
  TGI: > 100 µM
[4]
  TGI: > 100 µM
[5]
  TGI: > 100 µM
[6]
  TGI: > 100 µM
[7]
  TGI: > 100 µM
[8]
  TGI: > 100 µM
[9]
  TGI: > 100 µM
[10]
  TGI: > 100 µM
[11]
  TGI: > 100 µM
[16]
  TGI: > 100 µM
[12]
  TGI: > 100 µM
[13]
  TGI: > 100 µM

## COc1ccc([C@@]23OC[C@@H]4[C@@H](OC[C@@H]42)c2cc(OC)c(OC)cc23)cc1OC
[1]
  TGI: > 100 µM
[2]
  TGI: > 100 µM
[3]
  TGI: > 100 µM
[5]
  TGI: > 100 µM
[6]
  TGI: > 100 µM
[7]
  TGI: > 100 µM
[8]
  TGI: > 100 µM
[9]
  TGI: > 100 µM
[10]
  TGI: > 100 µM
[15]
  TGI: > 100 µM
[11]
  TGI: > 100 µM
[16]
  TGI: > 100 µM
[12]
  TGI: > 100 µM
[13]
  TGI: > 100 µM

## CCS(=O)(=O)CCn1cnc2c1c(=O)n(C)c(=O)n2C
[1]
  TGI: > 100 µM
[2]
  TGI: > 100 µM
[3]
  TGI: > 100 µM
[4]
  TGI: > 100 µM
[5]
  TGI: > 100 µM
[7]
  TGI: > 100 µM
[9]
  TGI: > 100 µM
[10]
  TGI: > 100 µM
[15]
  TGI: > 100 µM
[11]
  TGI: > 100 µM
[16]
  TGI: > 100 µM
[12]
  TGI: > 100 µM
[13]
  TGI: > 100 µM
[14]
  TGI: > 100 µM

## Cc1ccc(S(=O)(=O)NC(=O)Nc2ccc(S(N)(=O)=O)cc2S(N)(=O)=O)cc1
[1]
  TGI: > 100 µM
[2]
  TGI: > 100 µM
[3]
  TGI: > 100 µM
[4]
  TGI: > 100 µM
[5]
  TGI: > 100 µM
[6]
  TGI: > 100 µM
[8]
  TGI: > 100 µM
[9]
  TGI: > 100 µM
[10]
  TGI: > 100 µM
[15]
  TGI: > 100 µM
[11]
  TGI: > 100 µM
[12]
  TGI: > 100 µM
[13]
  TGI: > 100 µM
[14]
  TGI: > 100 µM

## O=C(/C=C/c1ccc(O)c(O)c1O)OCCc1ccccc1
[1]
  TGI: 36.2 µM
[2]
  TGI: > 100 µM
[3]
  TGI: > 100 µM
[4]
  TGI: > 100 µM
[5]
  TGI: 98.2 µM
[6]
  TGI: > 100 µM
[7]
  TGI: 42.7 µM
[8]
  TGI: 52.6 µM
[9]
  TGI: 97.9 µM
[10]
  TGI: 46.4 µM
[15]
  TGI: 48.8 µM
[11]
  TGI: > 100 µM
[16]
  TGI: > 100 µM
[12]
  TGI: 29.5 µM
[13]
  TGI: 80.6 µM

## C=C1CN(Cc2ccccc2)[C@@H]2CCCCC[C@H](C#N)[C@H]12
[1]
  TGI: > 100 µM
[2]
  TGI: > 100 µM
[3]
  TGI: > 100 µM
[4]
  TGI: > 100 µM
[5]
  TGI: > 100 µM
[6]
  TGI: > 100 µM
[7]
  TGI: > 100 µM
[8]
  TGI: > 80.1 µM
[9]
  TGI: > 100 µM
[10]
  TGI: > 100 µM
[11]
  TGI: > 100 µM
[16]
  TGI: > 100 µM
[12]
  TGI: > 100 µM
[13]
  TGI: > 100 µM
[14]
  TGI: > 100 µM

## CC(=O)OC1CC[C@]2(C)C3CC[C@@]4(C)C(CCC4[C@H](C)CCCC(C)C)[C@@H]3CCC2(Br)C1 (stereo not given in full)
[1]
  TGI: 19.4 µM
[2]
  TGI: 16.2 µM
[3]
  TGI: 26.5 µM
[4]
  TGI: 28.1 µM
[5]
  TGI: 21.9 µM
[6]
  TGI: 23.2 µM
[7]
  TGI: > 50 µM
[9]
  TGI: > 50 µM
[10]
  TGI: > 50 µM
[15]
  TGI: 28.3 µM
[16]
  TGI: > 50 µM
[12]
  TGI: 24 µM
[13]
  TGI: > 50 µM
[14]
  TGI: 27.3 µM

## C=C1C(=O)O[C@H]2[C@H]1CC(=O)/C(C)=C/CC[C@@]1(C)O[C@@H]21
[1]
  TGI: 5.43 µM
[2]
  TGI: 1.3 µM
[3]
  TGI: 2.65 µM
[4]
  TGI: 13.4 µM
[5]
  TGI: 1.08 µM
[6]
  TGI: 3.48 µM
[7]
  TGI: 29.8 µM
[8]
  GI50: 0.308 µM
  TGI: 1.92 µM
[9]
  TGI: 19.8 µM
[10]
  TGI: 7.09 µM
[11]
  TGI: 2.63 µM
[16]
  TGI: 6.02 µM
[12]
  TGI: 12.9 µM
[13]
  TGI: 13.6 µM
[14]
  TGI: 0.394 µM
